Read-outs that look alike come from different tables or passages of the source.
How the values were obtained:
bacteria = assay: Antibacterial activity of bismuth-thiols; format: cell-based; conditions: for antibacterial / antimicrobial activity in words: comparison between bismuth-thiols
IL-1α = assay: Serum cytokine levels in CLP mice treated with BisEDT; format: in vivo; conditions: BisEDT 1:2 (Bismuth 20 μg/kg BW) tail vein 5 h after CLP, sacrificed 18 h after injection
[1] = tested on: CLP mice (sepsis induced by cecal ligation and perforation); assay: Survival of septic mice (cecal ligation and perforation, CLP) treated with BisEDT; format: in vivo
Method: In the absence of any treatment, mortality rate is greater than 90% within 18-72 hours.
The object was to determine if Bismuth-ethanedithiol (BisEDT) in a molar ratio of 1:2, would protect CLP mice. Mortality rate of greater than 90% is observed within 18-72 hours in this model. A dose response study was performed to determine an optimal dose of BisEDT. […] Data were analyzed using Chi-Square and Krumkal Walkis tests. The data are presented below as average ±SEM. Data compared to control (dose 0) were considered significant (*) at p<0.05.

mice [2] = conditions: according to MSDS sheets from Aldrich Chemical Company; cited from earlier work
[3] = tested on: pro- and anti-inflammatory cytokines; assay: Polymicrobial sepsis induced up-regulation of cytokines in mice; conditions: mouse, in vivo
TGFβ1 = assay: Serum cytokine levels in CLP mice treated with BisEDT; format: in vivo; conditions: BisEDT 1:2 (Bismuth 20 μg/kg BW) tail vein 5 h after CLP, sacrificed 18 h after injection
IL-10 [4] = assay: as above; format: in vivo; conditions: BisEDT 1:2 (Bismuth 20 μg/kg BW) tail vein 5 h after CLP, sacrificed 18 h after injection
[5] = tested on: macrophages/monocytes from CLP mice; format: in vivo
IL-10 [6] = format: in vivo, mice
[7] = Stability of the bismuth-thiol compound; format: physicochemical; conditions: compared to bismuth:dimercaprol
TNFα = assay: Serum cytokine levels in CLP mice treated with BisEDT; format: in vivo; conditions: BisEDT 1:2 (Bismuth 20 μg/kg BW) tail vein 5 h after CLP, sacrificed 18 h after injection, * p<0.05
mice [8] = assay: Toxicity / lethality to mice; conditions: mouse, in vivo
[9] = repeat study, Injection Once a Day, dose 2 ug/kg BW, * p<0.05
[10] = repeat study, Injection Once a Day, dose 200 ug/kg BW
[11] = repeat study, Injection Twice a Day, dose 2 ug/kg BW, * p<0.05
[12] = repeat study, Injection Twice a Day, dose 200 ug/kg BW

CC(O)C(C)S (centres unmarked) [3-mercapto-2-butanol]
amount of thiol required relative to dimercaprol to achieve similar inhibitory activity (bacteria; in combination with bismuth): Approximately 3 times

SCCCCS.[Bi] [Bismuth-1,4-butanedithiol]
less antibacterial activity (compared with vicinal dithiols Bismuth-2,3-BDT / bismuth:ethanedithiol) (bacteria): ~100 fold

O=S(=O)(O)CC(S)CS (centres unmarked) [dimercaptopropane-1-sulfonic acid, reference compound]
antibacterial synergy of the thiol with bismuth (bacteria): did not show antibacterial synergy

Bismuth-2,3-BDT (2,3-butanedithiol)
antibacterial / antimicrobial activity in words (bacteria): as good as bismuth:ethanedithiol

Bismuth-ethanedithiol [BisEDT]
Serum IL-1α level (IL-1α): 10.5 ± 1.1 pg/mL | Survival ([1]; dose 2 ug/kg BW via tail vein once a day for three days, observed 8 days, average ±SEM, dose response study): 64 ± 43 h | Survival (%) ([1]; dose 2 ug/kg BW via tail vein once a day for three days, observed 8 days, dose response study): 20% | Survival (hrs.) ([1]; dose 20 ug/kg BW via tail vein once a day for three days, average ±SEM, dose response study, * p<0.05 vs dose 0): 110 ± 35* hrs. | Survival (%) ([1]; dose 20 ug/kg BW via tail vein once a day for three days, dose response study, * p<0.05 vs dose 0): 60* % | Survival ([1]; dose 200 ug/kg BW via tail vein once a day for three days, average ±SEM, dose response study): 75 ± 21 h | Survival (%) ([1]; dose 200 ug/kg BW via tail vein once a day for three days, dose response study): 40% | Survival ([1]; dose 2000 ug/kg BW via tail vein once a day for three days, average ±SEM, dose response study): 48 ± 24 h | Survival (%) ([1]; dose 2000 ug/kg BW via tail vein once a day for three days, dose response study): 20% | effect on survival ([1]; dose of 20 μg/kg body weight): significantly increase survival | effect of increase in dose frequency on survival ([1]; once daily to twice daily, P=0.73): did not increase survival | Survival (%) [1, 9]: 56* % | Survival (hrs.) [1, 9]: 109 ± 29* hrs. | Survival [1, 10]: 75 ± 21 h | Survival (%) [1, 10]: 40% | Survival (%) [1, 11]: 44* % | Survival (hrs.) [1, 11]: 103 ± 29* hrs. | Survival [1, 12]: 97 ± 40 h | Survival (%) [1, 12]: 40% | percentage survival, overall ([1]; treatment group versus 0% (control), summary of Example 1): 60% | survivability, overall ([1]; with treatment versus approximately 36 hours without treatment, summary of Example 1): 108 h | lethality to mice (mice [2]): very similar to that of dimercaprol | prevention of sepsis induced up-regulation of pro- and anti-inflammatory cytokines [3]: able to prevent the polymicrobial sepsis induced up-regulation of both pro- and anti-inflammatory cytokines | Serum TGFβ1 level (TGFβ1): 24.8 ± 3.6 pg/mL | Serum IL-10 level (IL-10 [4]): 165 ± 69 pg/mL | amounts of superoxide, H2O2 and NO2- produced by macrophages/monocytes, unstimulated ([5]; from BisEDT-treated CLP mice (Bismuth 20 μg/kg BW), without in vitro stimulation): in between that produced by the control and untreated CLP mice but not significantly different from either of these groups | release of superoxide, H2O2 and NO2- by macrophages/monocytes, stimulated ([5]; mouse, in vivo): significantly increased | IL-10 production in vitro by splenic macrophages (IL-10 [6]; from CLP mice treated with BisEDT, unstimulated): do not produce IL-10 in vitro as much as the macrophages from BisEDT untreated CLP animals | IL-10 release by splenic macrophages, stimulated (IL-10 [6]; mouse, in vivo): did not significantly up-regulate the IL-10 release | stability [7]: more stable compound at all molar ratios and pHs | antibacterial / antimicrobial activity in words (bacteria): stronger antimicrobial agent than bismuth:dimercaprol | Serum TNFα level (TNFα): 13.7 ± 2.9* pg/ml | toxicity compared to bismuth:dimercaprol (mice [8]): no more toxic

Bismuth:propanedithiol (1,3-propanedithiol)
antibacterial / antimicrobial activity in words (bacteria): works quite well, but not as well as the vicinal dithiols

bismuth:2-mercaptoethylamine
decrease in activity compared with bismuth:β-mercaptoethanol (bacteria; antibacterial activity): 5 fold

dimercapto-succinic acid [reference compound]
antibacterial synergy of the thiol with bismuth (bacteria): largely abolished synergy with bismuth | antibacterial synergy of the thiol with bismuth (bacteria; listed as DMSA): did not show antibacterial synergy
